This note sets out measurements from PMC9865589, “Synthesis and Evaluation of Novel S-alkyl Phthalimide- and S-benzyl-oxadiazole-quinoline Hybrids as Inhibitors of Monoamine Oxidase and Acetylcholinesterase” (Pharmaceuticals, 2022).

Common to all, as to type: biochemical
The target of one test is T1, MAO-A (Homo sapiens, UniProt P21397).
T1 sequence (P21397 1-527): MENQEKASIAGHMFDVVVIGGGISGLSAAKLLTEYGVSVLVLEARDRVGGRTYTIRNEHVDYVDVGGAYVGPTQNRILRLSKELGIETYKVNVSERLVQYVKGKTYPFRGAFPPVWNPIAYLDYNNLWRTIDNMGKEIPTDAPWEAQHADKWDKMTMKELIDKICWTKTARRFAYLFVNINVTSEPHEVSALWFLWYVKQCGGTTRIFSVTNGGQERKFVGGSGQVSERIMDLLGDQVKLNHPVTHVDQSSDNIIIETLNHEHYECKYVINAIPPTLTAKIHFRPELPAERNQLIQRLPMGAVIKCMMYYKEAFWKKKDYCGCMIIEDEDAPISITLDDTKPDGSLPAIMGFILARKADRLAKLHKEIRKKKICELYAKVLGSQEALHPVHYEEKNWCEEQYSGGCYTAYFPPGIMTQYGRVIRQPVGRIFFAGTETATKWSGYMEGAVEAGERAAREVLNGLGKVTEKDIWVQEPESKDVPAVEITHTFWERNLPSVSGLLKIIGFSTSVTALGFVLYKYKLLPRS
In words: Monoamine oxidase A inhibition assay (Amplex red fluorescence). The following applies: for IC50: average ± SEM, triplicate. On the procedure:
(§1) Different test chemicals and substrate concentrations were utilized in the kinetic experiments. Lineweaver-Burk plots were employed to determine the kind of inhibition, and they were used to track how the inhibitor affected Km and Vmax by plotting the reciprocal reaction rate against the reciprocal substrate concentrations.
(§2) According to the previously reported protocol, the synthesized compounds’ action on the monoamine oxidase (MAO-A and MAO-B) enzymes was tested. The enzyme was produced just 15 to 20 min before, at a cold room temperature. […] White 96-well plates were utilized for the test. The assay volume was 100 μL, having 60 μL buffer (pH 7.4) and 10 μL test compound (0.1 mM, 10% DMSO), followed by adding enzyme 10 μL (26 μg of protein for MAO-A and 5.0 μg for MAO-B). For MAO-A and MAO-B, the mixture was incubated for 20 and 15 min, respectively. The mixture was then given 10 μL of the substrate and 10 μL of newly prepared Amplex red. […] The non-linear curve fitting tool PRISM 5.0 (GraphPad, San Diego, CA, USA) was employed to compute IC50 values.

The target in the next test is T2, MAO-B (Homo sapiens, UniProt P27338).
T2 sequence (P27338 1-520): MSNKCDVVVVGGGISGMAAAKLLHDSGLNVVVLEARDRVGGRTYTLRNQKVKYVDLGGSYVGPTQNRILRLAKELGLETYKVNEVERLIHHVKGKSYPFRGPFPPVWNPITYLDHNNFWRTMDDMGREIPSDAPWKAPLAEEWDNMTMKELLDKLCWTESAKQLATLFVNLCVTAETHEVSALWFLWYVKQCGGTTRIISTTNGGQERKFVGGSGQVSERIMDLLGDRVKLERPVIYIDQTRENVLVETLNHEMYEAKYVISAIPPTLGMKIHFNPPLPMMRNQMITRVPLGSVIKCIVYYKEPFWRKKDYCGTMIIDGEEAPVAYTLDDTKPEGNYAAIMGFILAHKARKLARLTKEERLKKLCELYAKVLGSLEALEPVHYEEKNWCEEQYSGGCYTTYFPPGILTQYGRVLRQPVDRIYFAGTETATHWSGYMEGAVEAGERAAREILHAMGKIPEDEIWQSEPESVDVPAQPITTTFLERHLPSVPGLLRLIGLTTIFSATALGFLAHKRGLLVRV
The test can be described thus: biochemical. The protocol: as §1, §2

For the next test, the target named is AChE (Homo sapiens, UniProt P22303). The test can be described thus: biochemical. As to conditions: for IC50: average ± SEM, triplicate.
Chain of AChE (P22303 32-614): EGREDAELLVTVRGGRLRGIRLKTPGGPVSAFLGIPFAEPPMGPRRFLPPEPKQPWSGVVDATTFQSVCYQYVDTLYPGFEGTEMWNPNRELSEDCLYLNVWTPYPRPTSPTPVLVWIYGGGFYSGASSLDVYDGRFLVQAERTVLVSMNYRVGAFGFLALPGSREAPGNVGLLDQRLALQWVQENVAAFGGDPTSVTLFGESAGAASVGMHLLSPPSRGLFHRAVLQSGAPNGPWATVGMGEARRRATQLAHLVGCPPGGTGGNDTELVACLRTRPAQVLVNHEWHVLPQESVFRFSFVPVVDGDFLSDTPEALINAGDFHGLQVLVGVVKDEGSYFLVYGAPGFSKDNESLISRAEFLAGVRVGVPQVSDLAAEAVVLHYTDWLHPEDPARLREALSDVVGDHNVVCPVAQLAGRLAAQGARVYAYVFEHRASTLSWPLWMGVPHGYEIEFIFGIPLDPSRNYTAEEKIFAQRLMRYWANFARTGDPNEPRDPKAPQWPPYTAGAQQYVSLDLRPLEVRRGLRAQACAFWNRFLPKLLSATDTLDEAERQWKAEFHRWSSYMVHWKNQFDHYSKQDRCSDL
Source text: as §1
All substances were put through a little modified version of Ellman’s test to gauge the effectiveness of their ability to inhibit acetylcholinesterase (AChE). Released thiocholine reacts with chromogenic reagent 5,5-dithio-bis (2-nitrobenzoic) acid to produce a colorful product […]. At a concentration of 2.5 units/mL, the enzyme solutions were prepared. The assay volume was 100 μL, having 60 μL buffer and 10 μL test compound (0.1 mM, 10% DMSO), pursued by inserting enzyme 10 μL […]. The mixture was incubated for 10 min. 10 μL of the substrate and 10 μL of DTNB were added to the mixture.

Where [1] appears, read: Lineweaver-Burk plots, Vmax unaffected, Km increased.

Several values for one entry are separate records, joined by “and”; a condition that tells them apart may be missing. Equal values may be shown once.

Regarding `FC(F)(F)c1ccc(CSc2nnc(-c3cc(-c4ccccc4)nc4ccccc34)o2)cc1` [Compound 6a, 4-(5-(4-(Trifluoromethyl)benzylthio)-1,3,4-oxadiazol-2-yl)-2-phenylquinoline], the IC50 at MAO-A is 1.02 µM and 1.51 µM; against MAO-B, 3.71 ± 2.88 µM; at AChE, 3.23 ± 0.95 µM.

Turning to `O=C1c2ccccc2C(=O)N1CCCSc1nnc(-c2cc(-c3ccccc3)nc3ccccc23)o1` [Compound 5c, 2-(3-(5-(2-Phenylquinolin-4-yl)-1,3,4-oxadiazol-2-ylthio)propyl)isoindoline-1,3-dione], the 50% inhibitory concentration (IC50) against MAO-A is 3.31 ± 0.8 µM; against MAO-B it was 3.39 ± 0.42 µM; against AChE it was 1.02 ± 0.65 µM. At AChE (setting [1]), the “type of inhibition of AChE” value is “pure competitive type of inhibition”.

For the compound `O=C1c2ccccc2C(=O)N1CCCCCSc1nnc(-c2cc(-c3ccccc3)nc3ccccc23)o1` [Compound 5e, 2-(5-(5-(2-Phenylquinolin-4-yl)-1,3,4-oxadiazol-2-ylthio)pentyl)isoindoline-1,3-dione], the figures for the IC50 against MAO-A, against MAO-B and on AChE were 4.14 ± 0.35 µM, 3.84 ± 0.91 µM and 1.29 ± 0.75 µM, respectively.

In the case of `FC(F)(F)c1ccccc1CSc1nnc(-c2cc(-c3ccccc3)nc3ccccc23)o1` [Compound 6c, 4-(5-(2-(Trifluoromethyl)benzylthio)-1,3,4-oxadiazol-2-yl)-2-phenylquinoline], the IC50 was 6.81 ± 2.65 µM on MAO-A, 5.59 ± 3.22 µM at MAO-B and 4.38 ± 1.45 µM against AChE.

As for `O=C1c2ccccc2C(=O)N1CCCCSc1nnc(-c2cc(-c3ccccc3)nc3ccccc23)o1` [Compound 5d, 2-(4-(5-(2-Phenylquinolin-4-yl)-1,3,4-oxadiazol-2-ylthio)butyl)isoindoline-1,3-dione], the values for the IC50 at MAO-A, at MAO-B and against AChE were 3.18 ± 1.23 µM, 3.76 ± 1.04 µM and 2.38 ± 0.92 µM, respectively.

As for `O=C1c2ccccc2C(=O)N1CCSc1nnc(-c2cc(-c3ccccc3)nc3ccccc23)o1` [Compound 5b, 2-(2-(5-(2-Phenylquinolin-4-yl)-1,3,4-oxadiazol-2-ylthio)ethyl)isoindoline-1,3-dione], the figures for the IC50 at MAO-A, against MAO-B and against AChE were 1.81 ± 0.38 µM, 2.61 ± 2.48 µM and 2.55 ± 0.96 µM, respectively.

For `FC(F)(F)c1cccc(CSc2nnc(-c3cc(-c4ccccc4)nc4ccccc34)o2)c1` [Compound 6b, 4-(5-(3-(Trifluoromethyl)benzylthio)-1,3,4-oxadiazol-2-yl)-2-phenylquinoline], the IC50 is 1.51 µM and 1.02 µM against MAO-A; 2.71 ± 0.88 µM against MAO-B; 3.54 ± 1.05 µM against AChE.

With `O=C1c2ccccc2C(=O)N1CSc1nnc(-c2cc(-c3ccccc3)nc3ccccc23)o1` [Compound 5a, 2-((5-(2-Phenylquinolin-4-yl)-1,3,4-oxadiazol-2-ylthio)methyl)isoindoline-1,3-dione], the “type of inhibition of MAO-A” value on MAO-A (setting [1]) is reported as “pure competitive type of inhibition”. Also, the IC50 against MAO-A stood at 0.91 ± 0.15 µM; against MAO-B, 1.59 ± 1.66 µM; against AChE, 1.4 ± 0.45 µM.

Take `c1ccc(CSc2nnc(-c3cc(-c4ccccc4)nc4ccccc34)o2)cc1` [Compound 6d, 4-(5-(Benzylthio)-1,3,4-oxadiazol-2-yl)-2-phenylquinoline]: the IC50 was found to be 4.16 ± 1.71 µM at MAO-A, 2.9 ± 1.85 µM on MAO-B and 4.98 ± 1.85 µM at AChE.

For the compound `O=C1c2ccccc2C(=O)N1CCCCCCSc1nnc(-c2cc(-c3ccccc3)nc3ccccc23)o1` [Compound 5f, 2-(6-(5-(2-Phenylquinolin-4-yl)-1,3,4-oxadiazol-2-ylthio)hexyl)isoindoline-1,3-dione], the IC50 worked out at 4.88 ± 1.75 µM against MAO-A, 0.84 ± 0.06 µM at MAO-B and 3.32 ± 0.45 µM on AChE. The “type of inhibition of MAO-B” value at MAO-B (setting [1]) is “pure competitive type of inhibition”.

In general, IC50 refers to the concentration that inhibits the measured activity by half.
